Where only a bound is given, the exact number is not on record here.

As a reminder, the IC50 is the concentration needed to halve the response being measured.

Chain of Wild type FGFR2 (P21802 22-821): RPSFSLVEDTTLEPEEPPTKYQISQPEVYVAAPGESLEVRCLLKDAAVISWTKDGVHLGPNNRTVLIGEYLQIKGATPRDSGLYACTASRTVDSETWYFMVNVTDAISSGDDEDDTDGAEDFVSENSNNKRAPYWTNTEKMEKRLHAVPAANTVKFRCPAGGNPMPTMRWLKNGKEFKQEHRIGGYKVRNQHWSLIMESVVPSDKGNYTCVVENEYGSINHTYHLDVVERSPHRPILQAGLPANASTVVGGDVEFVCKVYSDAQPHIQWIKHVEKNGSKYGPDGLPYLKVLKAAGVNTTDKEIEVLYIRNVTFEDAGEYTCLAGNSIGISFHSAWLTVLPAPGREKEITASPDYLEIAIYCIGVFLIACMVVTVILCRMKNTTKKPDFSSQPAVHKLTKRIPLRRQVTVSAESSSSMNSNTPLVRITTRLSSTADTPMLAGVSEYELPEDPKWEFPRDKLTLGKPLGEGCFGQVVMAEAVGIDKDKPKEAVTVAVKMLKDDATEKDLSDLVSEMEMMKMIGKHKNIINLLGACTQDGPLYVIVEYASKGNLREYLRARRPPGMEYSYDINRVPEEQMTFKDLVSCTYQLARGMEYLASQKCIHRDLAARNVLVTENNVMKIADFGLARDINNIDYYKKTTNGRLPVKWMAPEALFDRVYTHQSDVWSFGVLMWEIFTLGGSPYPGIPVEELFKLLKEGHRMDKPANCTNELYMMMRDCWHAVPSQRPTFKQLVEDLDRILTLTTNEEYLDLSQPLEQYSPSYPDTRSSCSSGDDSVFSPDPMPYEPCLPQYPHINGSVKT

This assay addresses Wild type FGFR2 (Homo sapiens (Human), UniProt P21802). Briefly: FGFR2 kinase assay (fluorescence-based microfluidic mobility shift assay). In kind it is biochemical. The following applies: wild type FGFR2 0.06 nM, 100 μM ATP, 80 minutes at room temperature; class symbols.
In the case of `CC#CC(=O)N1C[C@@H](n2nc(C#Cc3c(F)cc4c(ncn4CC)c3F)c(C(N)=O)c2NC)C[C@@H]1COC` [Example 137, 1-[(3S,5R)-1-(but-2-ynoyl)-5-(methoxymethyl)pyrrolidin-3-yl]-3-[2-(1-ethyl-4,6-difluoro-1,3-benzodiazol-5-yl)ethynyl]-5-(methylamino)pyrazole-4-carboxamide], the 50% inhibitory concentration (IC50) is at most 100 nM.
`[2H]C([2H])([2H])OC[C@H]1C[C@H](n2nc(C#Cc3cc4ncn(CC)c4cc3Cl)c(C(N)=O)c2NC)CN1C(=O)C=C` [Example 138, 1-((3S,5R)-1-acryloyl-5-((methoxy-d3)methyl)pyrrolidin-3-yl)-3-((6-chloro-1-ethyl-1H-benzo[d]imidazol-5-yl)ethynyl)-5-(methylamino)-1H-pyrazole-4-carboxamide]: the IC50 was at most 100 nM.
For `C=CC(=O)N1CC[C@H](n2nc(C#Cc3cc4ncn(C)c4cc3F)c(C(N)=O)c2NC)C1` [Example 139, 3-[2-(6-Fluoro-1-methyl-1,3-benzodiazol-5-yl)ethynyl]-5-(methylamino)-1-[(3S)-1-(prop-2-enoyl)pyrrolidin-3-yl]pyrazole-4-carboxamide], the IC50 was at most 100 nM.
Consider `C=CC(=O)N1CC[C@H](n2nc(C#Cc3cc4ncn(CC)c4c(F)c3F)c(C(N)=O)c2NC)C1` [Example 140, 3-[2-(1-Ethyl-6,7-difluoro-1,3-benzodiazol-5-yl)ethynyl]-5-(methylamino)-1-[(3S)-1-(prop-2-enoyl)pyrrolidin-3-yl]pyrazole-4-carboxamide], for which the IC50 is at most 100 nM.
Take `C=CC(=O)N1CC[C@H](n2nc(C#Cc3cc4ncn(CC)c4c(F)c3Cl)c(C(N)=O)c2NC)C1` [Example 141, 3-[2-(6-Chloro-1-ethyl-7-fluoro-1,3-benzodiazol-5-yl)ethynyl]-5-(methylamino)-1-[(3S)-1-(prop-2-enoyl)pyrrolidin-3-yl]pyrazole-4-carboxamide]: the IC50 was at most 100 nM.
As to `C=CC(=O)N1CC[C@H](n2nc(C#Cc3cc4ncn(C)c4c(F)c3Cl)c(C(N)=O)c2NC)C1` [Example 142, 3-[2-(6-Chloro-7-fluoro-1-methyl-1,3-benzodiazol-5-yl)ethynyl]-5-(methylamino)-1-[(3S)-1-(prop-2-enoyl)pyrrolidin-3-yl]pyrazole-4-carboxamide], the concentration for half-maximal inhibition (IC50) was at most 100 nM.
For the molecule `C=CC(=O)N1CC[C@H](n2nc(C#Cc3cc4ncn(CC)c4cc3F)c(C(N)=O)c2NC)C1` [Example 143, 3-[2-(1-Ethyl-6-fluoro-1,3-benzodiazol-5-yl)ethynyl]-5-(methylamino)-1-[(3S)-1-(prop-2-enoyl)pyrrolidin-3-yl]pyrazole-4-carboxamide], the IC50 is at most 100 nM.
Regarding `C=CC(=O)N1CC[C@H](n2nc(C#Cc3cc4ncn(C)c4cc3Cl)c(C(N)=O)c2NC)C1` [Example 144, 3-[2-(6-Chloro-1-methyl-1,3-benzodiazol-5-yl)ethynyl]-5-(methylamino)-1-[(3S)-1-(prop-2-enoyl)pyrrolidin-3-yl]pyrazole-4-carboxamide], the IC50 was at most 100 nM.
Next, `C=CC(=O)N1CC[C@H](n2nc(C#Cc3cc4ncn(C)c4c(F)c3F)c(C(N)=O)c2NC)C1` [Example 145, 3-[2-(6,7-Difluoro-1-methyl-1,3-benzodiazol-5-yl)ethynyl]-5-(methylamino)-1-[(3S)-1-(prop-2-enoyl)pyrrolidin-3-yl]pyrazole-4-carboxamide]: at most 100 nM.
For `C=CC(=O)N1C[C@@H](n2nc(C#Cc3cc4ncn(C5CC5)c4c(F)c3Cl)c(C(N)=O)c2NC)C[C@@H]1COC` [Example 147, 3-[2-(6-Chloro-1-cyclopropyl-7-fluoro-1,3-benzodiazol-5-yl)ethynyl]-1-[(3S,5R)-5-(methoxymethyl)-1-(prop-2-enoyl)pyrrolidin-3-yl]-5-(methylamino)pyrazole-4-carboxamide], the IC50 was at most 100 nM.
For the molecule `C=CC(=O)N1C[C@@H](n2nc(C#Cc3cc4ncn(C)c4cc3F)c(C(N)=O)c2NC)C[C@@H]1CF` [Example 148, 3-[2-(6-Fluoro-1-methyl-1,3-benzodiazol-5-yl)ethynyl]-1-[(3S,5R)-5-(fluoromethyl)-1-(prop-2-enoyl)pyrrolidin-3-yl]-5-(methylamino)pyrazole-4-carboxamide], the 50% inhibitory concentration (IC50) is at most 100 nM.
Turning to `C=CC(=O)N1C[C@@H](n2nc(C#Cc3c(F)c(F)c4c(nc(C)n4C)c3F)c(C(N)=O)c2NC)C[C@@H]1COC` [Example 149, 1-[(3S,5R)-5-(Methoxymethyl)-1-(prop-2-enoyl)pyrrolidin-3-yl]-5-(methylamino)-3-[2-(4,6,7-trifluoro-1,2-dimethyl-1,3-benzodiazol-5-yl)ethynyl]pyrazole-4-carboxamide], the IC50 is at most 100 nM.
As for `C=CC(=O)N1C[C@@H](n2nc(C#Cc3cc4nc(C)n(C5CC5)c4cc3F)c(C(N)=O)c2NC)C[C@@H]1COC` [Example 150, 3-[2-(1-Cyclopropyl-6-fluoro-2-methyl-1,3-benzodiazol-5-yl)ethynyl]-1-[(3S,5R)-5-(methoxymethyl)-1-(prop-2-enoyl)pyrrolidin-3-yl]-5-(methylamino)pyrazole-4-carboxamide], the figure is at most 100 nM.
`C=CC(=O)N1C[C@@H](n2nc(C#Cc3cc4ncn(C5CC5)c4c(F)c3F)c(C(N)=O)c2NC)C[C@@H]1COC` [Example 151, 3-[2-(1-Cyclopropy-6,7-difluoro-1,3-benzodiazol-5-yl)ethynyl]-1-[(3S,5R)-5-(methoxymethyl)-1-(prop-2-enoyl)pyrrolidin-3-yl]-5-(methylamino)pyrazole-4-carboxamide]: the IC50 was at most 100 nM.
Turning to `C=CC(=O)N1C[C@@H](n2nc(C#Cc3c(F)c(F)c4c(ncn4C4CC4)c3F)c(C(N)=O)c2NC)C[C@@H]1COC` [Example 153, 3-[2-(1-cyclopropyl-4,6,7-trifluoro-1,3-benzodiazol-5-yl)ethynyl]-1-[(3S,5R)-5-(methoxymethyl)-1-(prop-2-enoyl)pyrrolidin-3-yl]-5-(methylamino)pyrazole-4-carboxamide], the IC50 was at most 100 nM.
As for `C=CC(=O)N1C[C@@H](n2nc(C#Cc3cc4ncn(CC)c4c(F)c3F)c(C(N)=O)c2NC)C[C@@H]1COC(F)F` [Example 154, 1-[(3S,5R)-5-[(Difluoromethoxy)methyl]-1-(prop-2-enoyl)pyrrolidin-3-yl]-3-[2-(1-ethyl-6,7-difluoro-1,3-benzodiazol-5-yl)ethynyl]-5-(methylamino)pyrazole-4-carboxamide], the IC50 is at most 100 nM.
With `C=CC(=O)N1C[C@@H](n2nc(C#Cc3ccc4c(c3)ncn4C3CC3)c(C(N)=O)c2NC)C[C@@H]1COC(F)F` [Example 155, 3-[2-(1-Cyclopropyl-1,3-benzodiazol-5-yl)ethynyl]-1-[(3S,5R)-5-[(difluoromethoxy)methyl]-1-(prop-2-enoyl)pyrrolidin-3-yl]-5-(methylamino)pyrazole-4-carboxamide], the IC50 was at most 100 nM.
`C=CC(=O)N1C[C@@H](n2nc(C#Cc3c(F)cc4c(ncn4C4CC4)c3F)c(C(N)=O)c2NC)C[C@@H]1COC(F)F` [Example 156, 1-((3S,5R)-1-Acryloyl-5-((difluoromethoxy)methyl)pyrrolidin-3-yl)-3-((1-cyclopropyl-4,6-difluoro-1H-benzo[d]imidazol-5-yl)ethynyl)-5-(methylamino)-1H-pyrazole-4-carboxamide]: the IC50 is at most 100 nM.
In the case of `C=CC(=O)N1C[C@@H](n2nc(C#Cc3c(F)c(F)c4c(ncn4CC)c3F)c(C(N)=O)c2NC)C[C@@H]1COC` [Example 157, 3-[2-(1-Ethyl-4,6,7-trifluoro-1,3-benzodiazol-5-yl)ethynyl]-1-[(3S,5R)-5-(methoxymethyl)-1-(prop-2-enoyl)pyrrolidin-3-yl]-5-(methylamino)pyrazole-4-carboxamide], the IC50 is at most 100 nM.
For the molecule `C=CC(=O)N1C[C@@H](n2nc(C#Cc3cc4ncn(C5CC5)c4c(F)c3F)c(C(N)=O)c2NC)C[C@@H]1C` [Example 158, 3-[2-(1-cyclopropyl-6,7-difluoro-1,3-benzodiazol-5-yl)ethynyl]-1-[(3S,5S)-5-methyl-1-(prop-2-enoyl)pyrrolidin-3-yl]-5-(methylamino)pyrazole-4-carboxamide], the 50% inhibitory concentration (IC50) was at most 100 nM.
As for `C=CC(=O)N1C[C@@H](n2nc(C#Cc3cc4ncn(C5CC5)c4cc3F)c(C(N)=O)c2NC)C[C@@H]1COC(F)F` [Example 161, 1-((3S,5R)-1-acryloyl-5-((difluoromethoxy)methyl)pyrrolidin-3-yl)-3-((1-cyclopropyl-6-fluoro-1H-benzo[d]imidazol-5-yl)ethynyl)-5-(methylamino)-1H-pyrazole-4-carboxamide], the figure is at most 100 nM; as for `C=CC(=O)N1C[C@@H](n2nc(C#Cc3c(F)cc4c(ncn4C4CC4)c3F)c(C(N)=O)c2NC)C[C@@H]1C(F)F` [Example 163, 3-[2-(1-Cyclopropyl-4,6-difluoro-1,3-benzodiazol-5-yl)ethynyl]-1-[(3S,5R)-5-(difluoromethyl)-1-(prop-2-enoyl)pyrrolidin-3-yl]-5-(methylamino)pyrazole-4-carboxamide], at most 100 nM.
`C=CC(=O)N1C[C@@H](n2nc(C#Cc3cc4ncn(C5CC5)c4cc3F)c(C(N)=O)c2NC)C[C@H]1C` [Example 164, 1-((3S,5R)-1-Acryloyl-5-methylpyrrolidin-3-yl)-3-((1-cyclopropyl-6-fluoro-1H-benzo[d]imidazol-5-yl)ethynyl)-5-(methylamino)-1H-pyrazole-4-carboxamide]: the IC50 was at most 100 nM.
On to `C=CC(=O)N1C[C@@H](n2nc(C#Cc3c(F)cc4c(ncn4C4CC4)c3F)c(C(N)=O)c2NC)C[C@H]1C` [Example 165, 3-[2-(1-Cyclopropyl-4,6-difluoro-1,3-benzodiazol-5-yl)ethynyl]-1-[(3S,5R)-5-methyl-1-(prop-2-enoyl)pyrrolidin-3-yl]-5-(methylamino)pyrazole-4-carboxamide], for which the half-inhibitory concentration (IC50) is at most 100 nM.
On to `C=CC(=O)N1CC[C@H](n2nc(C#Cc3cc4ncn(C5CC5)c4cc3F)c(C(N)=O)c2N)C1` [Example 168, 5-Amino-3-[2-(1-cyclopropyl-6-fluoro-1,3-benzodiazol-5-yl)ethynyl]-1-[(3S)-1-(prop-2-enoyl)pyrrolidin-3-yl]pyrazole-4-carboxamide], for which the half-maximal inhibitory concentration (IC50) is at most 100 nM.

The record behind these values is patent US11345681B1, “Inhibitors of fibroblast growth factor receptor kinases” (Kinnate Biopharma Inc., priority 2020, dated 2022).
